Columns and labels:
ZEAMX = test: Post-emergence herbicidal effect and crop plant compatibility, greenhouse pot test; format: in vivo, Zea mays; conditions: one-leaf stage, rated visually after about 3 weeks vs untreated controls; for plant injury at 20 g/ha / plant injury at 80 g/ha: Zea mays, 504 h; for plant injury at 20 g/ha: read-out: Post-emergence effect at 20 g/ha against ZEAMX in %; for plant injury at 80 g/ha: read-out: Post-emergence effect at 80 g/ha against ZEAMX in %
Summary of the method: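 Sandy loam pots, greenhouse. One-leaf stage (2–3 wk after sowing) foliar spray; WP/EC in water + 0.5% additive, 600 l/ha; 20–320 g/ha. Visual score ~3 wk, 0–100% vs untreated.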

ABUTH = test: Post-emergence herbicidal effect, greenhouse pot test; format: in vivo, Abutilon theophrasti; conditions: Abutilon theophrasti, 504 h, visual rating about 3 weeks after treatment, read-out: Post-emergence effect against ABUTH
Summary of the method: (§1)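 Visual % activity scored roughly 3 weeks post-spray against untreated plants, where 100% means death and 0% equals control. Plants were treated at the one-leaf stage, 2 to 3 weeks after sowing in sandy loam, at 20 to 320 g/ha.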

ALOMY = test: as above; format: in vivo, Alopecurus myosuroides; conditions: Alopecurus myosuroides, 504 h, 320 g/ha, visual rating about 3 weeks after treatment, read-out: Post-emergence effect against ALOMY
Summary of the method: as §1

AMARE = test: as above; format: in vivo, Amaranthus retroflexus; conditions: Amaranthus retroflexus, 504 h, 320 g/ha, visual rating about 3 weeks after treatment, read-out: Post-emergence effect against AMARE
Summary of the method: as §1

AVEFA = test: as above; format: in vivo, Avena fatua; conditions: Avena fatua, 504 h, visual rating about 3 weeks after treatment, read-out: Post-emergence effect against AVEFA
Summary of the method: as §1

DIGSA = test: as above; format: in vivo, Digitaria sanguinalis; conditions: Digitaria sanguinalis, 504 h, visual rating about 3 weeks after treatment, read-out: Post-emergence effect against DIGSA
Summary of the method: as §1

ECHCG = test: as above; format: in vivo, Echinochloa crus-galli; conditions: Echinochloa crus-galli, 504 h, read-out: Post-emergence effect against ECHCG in %
Summary of the method: as §1

LOLRI = test: as above; format: in vivo, Lolium rigidum; conditions: Lolium rigidum, 504 h, read-out: Post-emergence effect against LOLRI in %
Summary of the method: as §1

MATIN = test: as above; format: in vivo, Tripleurospermum inodorum; conditions: Tripleurospermum inodorum, 504 h, 320 g/ha, read-out: Post-emergence effect against MATIN in %
Summary of the method: as §1

PHBPU = test: as above; format: in vivo, Ipomoea purpurea; conditions: Ipomoea purpurea, 504 h, read-out: Post-emergence effect against PHBPU in %
Summary of the method: as §1

POLCO = test: as above; format: in vivo, Fallopia convolvulus; conditions: Fallopia convolvulus, 504 h, read-out: Post-emergence effect against POLCO in %
Summary of the method: as §1

SETVI = test: as above; format: in vivo, Setaria viridis; conditions: Setaria viridis, 504 h, 320 g/ha, read-out: Post-emergence effect against SETVI in %
Summary of the method: as §1

VERPE = test: as above; format: in vivo, Veronica persica; conditions: Veronica persica, 504 h, 320 g/ha, read-out: Post-emergence effect against VERPE in %
Summary of the method: as §1

VIOTR = test: as above; format: in vivo, Viola tricolor; conditions: Viola tricolor, 504 h, read-out: Post-emergence effect against VIOTR in %
Summary of the method: as §1

KCHSC = test: as above; format: in vivo
Summary of the method: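 Greenhouse plants in sandy loam, sprayed post-emergence at the one-leaf stage (2–3 weeks after sowing) with WP or EC formulations in water plus 0.5% additive at 600 l/ha. Rates 20 to 320 g/ha. Activity rated visually after about 3 weeks against untreated controls (0% like control, 100% dead).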

Compound	plant injury at 20 g/ha (ZEAMX)	plant injury at 80 g/ha (ZEAMX)	pest or weed control at 80 g/ha (ABUTH)	pest or weed control at 320 g/ha (ABUTH)	pest or weed control at 320 g/ha (ALOMY)	pest or weed control at 320 g/ha (AMARE)	pest or weed control at 80 g/ha (AVEFA)	pest or weed control at 320 g/ha (AVEFA)	pest or weed control at 320 g/ha (DIGSA)	pest or weed control at 320 g/ha (ECHCG)	pest or weed control at 320 g/ha (LOLRI)	pest or weed control at 320 g/ha (MATIN)	pest or weed control at 80 g/ha (PHBPU)	pest or weed control at 320 g/ha (PHBPU)	pest or weed control at 80 g/ha (POLCO)	pest or weed control at 320 g/ha (POLCO)	pest or weed control at 320 g/ha (SETVI)	pest or weed control at 320 g/ha (VERPE)	pest or weed control at 80 g/ha (VIOTR)	pest or weed control at 320 g/ha (VIOTR)	also measured
COC(=O)C(OC)Oc1nn(-c2ncccc2F)c(-c2ccc(F)nc2)c1C1CC1 (stereo not drawn) [Example I-40]	0%	0%	90%	90%	90%	80%	80%	90%	90%	90%	90%	80%	90%	90%	90%	90%	90%	90%	90%	90%	Post-emergence effect at 320 g/ha against ZEAMX in % (ZEAMX; 320 g/ha): 0%; pest or weed control at 80 g/ha (ECHCG; 80 g/ha): 90%; pest or weed control at 80 g/ha (LOLRI; 80 g/ha): 90%; Post-emergence effect against KCHSC in % (KCHSC; 80 g/ha): 90%; Post-emergence effect against KCHSC in % (KCHSC; 320 g/ha): 90%
COC(=O)C(OC)Oc1nn(-c2ncccc2F)c(-c2ccc(F)nc2)c1C(F)(F)F (stereo not drawn) [Example I-41, Methyl {[1-(3-fluoropyridin-2-yl)-5-(6-fluoropyridin-3-yl)-4-(trifluoromethyl)-1H-pyrazol-3-yl]oxy}(methoxy)acetate]	0%	0%	90%	90%	90%	90%	80%	90%	90%	90%	90%	80%	90%	90%	90%	90%	90%	90%	80%	90%	pest or weed control at 80 g/ha (DIGSA; 80 g/ha): 80%; pest or weed control at 80 g/ha (KCHSC; 504 h, 80 g/ha, read-out: Post-emergence effect against KCHSC in %): 80%; pest or weed control at 320 g/ha (KCHSC; 504 h, 320 g/ha, read-out: Post-emergence effect against KCHSC in %): 90%

Source: patent publication US20240391862A1, “(1,4,5-TRISUBSTITUTED-1H-PYRAZOL-3-YL)OXY-2-ALKOXY ALKYL ACIDS AND THEIR DERIVATIVES, THEIR SALTS AND THEIR USE AS HERBICIDAL AGENTS” (Bayer AKtiengesellschaft, priority 2021, published 2024)
